Experimental findings from US20210128566A1, “NOVEL FUNCTIONALIZED PURINE-2,6-DIONES AND THEIR USE IN MEDICINE” (THOMAS HELLEDAYS STIFTELSE FÖR MEDICINSK FORSKNING, priority 2017, published 2021) are described below.

Experiment [1] concerns the target recombinant human NUDT5 (Homo sapiens, UniProt Q9UKK9). The experiment is described as follows: NUDT5 inhibitor activity by malachite green reporter assay. The note with it: 6 nM NUDT5, 50 μM ADP-Ribose, 15 minutes at room temperature. Format: biochemical. An outline of the steps:
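Coupled ADP-ribose hydrolysis in 10 mM Tris-acetate pH 8.0, 40 mM NaCl, 10 mM Mg acetate, 0.005% Tween-20, 1 mM DTT: 6 nM NUDT5, 50 μM ADP-Ribose, 10 U/ml alkaline phosphatase, 15 min at room temperature. Pi read by malachite green at 630 nm; compounds 100 μM–1.7 nM, 3-fold; IC50 by curve fit.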
(In general: A reporter such as luciferase makes a cellular process visible.)

In experiment [2] the test system is T47D^WT cells. The experiment is described as follows: Nuclear-targeted luciferase reporter of nuclear ATP production after R5020 stimulation. The experiment is classed as cell-based. The note with it: hormone-starved T47D^WT cells, compound for two hours, then R5020; Compound 19 at 1.5 μM, Compounds 16/17 at 15 μM. As to the method: Top, a representative measurement of bioluminescence intensity over 60 minutes of R5020 treatment; bottom, box-and-whisker plots of bioluminescence quantitations from six independent experiments (center line, median; box limits, upper and lower quartiles; whiskers, minima and maxima; individual data points also shown). ns—not significant, *—p<0.05, **—p<0.01, ***—p<0.001; repeated measures two-way ANOVA analysis.
In HR+ breast cancer cells, NUDT5 activity is required to produce ATP in the nucleus following hormone stimulation (Wright, R. H. G. et al., Science, 352, 1221-1225 (2016)). A nuclear-targeted luciferase reporter system was employed to monitor ATP production after hormone stimulation.
Hormone-starved T47D^WT cells were treated with example compounds as described herein for two hours and then stimulated with the progesterone receptor agonist, R5020, for the time points indicated.

As to `Cn1c(=O)c2c(nc(N3CCNCC3)n2Cc2nnc(-c3ccc(Cl)c(Cl)c3)o2)n(C)c1=O` [Example 19, 7-{[5-(3,4-dichlorophenyl)-1,3,4-oxadiazol-2-yl]methyl}-1,3-dimethyl-8-(piperazin-1-yl)-2,3,6,7-tetrahydro-1H-purine-2,6-dione], in experiment [1] (Table 3), the IC50 (commonly the midpoint of a concentration-inhibition curve) amounted to 29.1 nM. Also, the “nuclear luminescence (nuclear ATP production)” value (“nuclear luminescence” for short) in experiment [2] was “reduced nuclear luminescence”.

Consider `CCN1CCN(c2nc3c(c(=O)n(C)c(=O)n3C)n2Cc2nnc(-c3ccc(Cl)c(Cl)c3)o2)CC1` [Example 17, 7-{[5-(3,4-dichlorophenyl)-1,3,4-oxadiazol-2-yl]methyl}-8-(4-ethylpiperazin-1-yl)-1,3-dimethyl-2,3,6,7-tetrahydro-1H-purine-2,6-dione], for which, in experiment [1] (Table 3), the IC50 amounted to 39 nM. Further, the “nuclear luminescence” value in experiment [2] is given as “Strong luminescence”.

On to `Cn1c(=O)c2c(nc(N3CCNCC3)n2Cc2nnc(-c3ccc(F)cc3)o2)n(C)c1=O` [Example 109, 7-{[5-(4-fluorophenyl)-1,3,4-oxadiazol-2-yl]methyl}-1,3-dimethyl-8-(piperazin-1-yl)-2,3,6,7-tetrahydro-1H-purine-2,6-dione], for which, in experiment [1] (Table 4), the IC50 amounted to 345 nM.

Regarding `Cn1c(=O)c2c(nc(N3CCNCC3)n2Cc2nnc(-c3ccc([N+](=O)[O-])cc3)o2)n(C)c1=O` [Example 115, 1,3-dimethyl-7-{[5-(4-nitrophenyl)-1,3,4-oxadiazol-2-yl]methyl}-8-(piperazin-1-yl)-2,3,6,7-tetrahydro-1H-purine-2,6-dione], the IC50 in experiment [1] (Table 4) amounted to 286 nM.

`COc1ccc(-c2nnc(Cn3c(N4CCNCC4)nc4c3c(=O)n(C)c(=O)n4C)o2)cc1Cl` [Example 118, 7-{[5-(3-chloro-4-methoxyphenyl)-1,3,4-oxadiazol-2-yl]methyl}-1,3-dimethyl-8-(piperazin-1-yl)-2,3,6,7-tetrahydro-1H-purine-2,6-dione]: in experiment [1] (Table 4), the IC50 came to 17.4 nM.

Consider `Cn1c(=O)c2c(nc(Cl)n2Cc2nnc(-c3cccnc3)o2)n(C)c1=O` [Example 94, 8-chloro-1,3-dimethyl-7-{[5-(pyridin-3-yl)-1,3,4-oxadiazol-2-yl]methyl}-2,3,6,7-tetrahydro-1H-purine-2,6-dione], for which the IC50 in experiment [1] (Table 4) was found to be 6910 nM.

As for `Cn1c(=O)c2c(nc(N3CCNCC3)n2Cc2nnc(-c3ccc(C(F)(F)F)cc3)o2)n(C)c1=O` [Example 121, 1,3-dimethyl-8-(piperazin-1-yl)-7-({5-[4-(trifluoromethyl)phenyl]-1,3,4-oxadiazol-2-yl}methyl)-2,3,6,7-tetrahydro-1H-purine-2,6-dione], the IC50 in experiment [1] (Table 4) was determined as 51.6 nM.

For `CCCCN1CCN(c2nc3c(c(=O)n(C)c(=O)n3C)n2Cc2nnc(-c3ccc(Cl)c(Cl)c3)o2)CC1` [Example 16, 8-(4-butylpiperazin-1-yl)-7-{[5-(3,4-dichlorophenyl)-1,3,4-oxadiazol-2-yl]methyl}-1,3-dimethyl-2,3,6,7-tetrahydro-1H-purine-2,6-dione], the IC50 in experiment [1] (Table 3) worked out at 53.8 nM. Also, in experiment [2], the “nuclear luminescence” value is “Strong luminescence”.

On to `CC(C)c1nc2c(c(=O)n(C)c(=O)n2C)n1Cc1nnc(-c2ccc(Cl)c(Cl)c2)o1` [Example 62, 7-{[5-(3,4-dichlorophenyl)-1,3,4-oxadiazol-2-yl]methyl}-1,3-dimethyl-8-(propan-2-yl)-2,3,6,7-tetrahydro-1H-purine-2,6-dione], for which the IC50 in experiment [1] (Table 3) was > 1000 nM.

Regarding `Cn1c(=O)c2c(nc(Cc3ccccc3)n2Cc2nnc(-c3ccc(Cl)c(Cl)c3)o2)n(C)c1=O` [Example 63, 8-benzyl-7-{[5-(3,4-dichlorophenyl)-1,3,4-oxadiazol-2-yl]methyl}-1,3-dimethyl-2,3,6,7-tetrahydro-1H-purine-2,6-dione], the IC50 in experiment [1] (Table 3) was > 1000 nM.
